PMC11364775, “Ion occupancy of the selectivity filter controls opening of a cytoplasmic gate in the K2P channel TALK-2” (Nature Communications, 2024)

Target: T1, WT TREK-2 channels (Homo sapiens, UniProt P57789)
T1 construct: expressed in transfected cells; host or cells: Xenopus laevis oocytes (cRNA injection), excised inside-out patches
T1 sequence (P57789 1-538): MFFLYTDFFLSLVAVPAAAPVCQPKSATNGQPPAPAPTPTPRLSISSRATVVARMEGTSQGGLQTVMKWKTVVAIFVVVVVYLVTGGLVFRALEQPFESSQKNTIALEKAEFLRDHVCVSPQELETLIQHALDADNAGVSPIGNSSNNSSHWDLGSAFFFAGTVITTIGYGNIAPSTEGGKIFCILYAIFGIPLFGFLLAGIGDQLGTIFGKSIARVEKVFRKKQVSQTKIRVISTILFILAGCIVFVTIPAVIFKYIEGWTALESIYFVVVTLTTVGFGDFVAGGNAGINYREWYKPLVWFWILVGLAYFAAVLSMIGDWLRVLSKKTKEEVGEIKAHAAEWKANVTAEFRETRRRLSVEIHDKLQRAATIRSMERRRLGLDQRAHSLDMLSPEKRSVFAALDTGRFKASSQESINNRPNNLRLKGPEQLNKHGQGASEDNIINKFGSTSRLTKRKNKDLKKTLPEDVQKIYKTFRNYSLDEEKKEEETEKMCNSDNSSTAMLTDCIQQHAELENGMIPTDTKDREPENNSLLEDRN
Experiment: Conductance-voltage (G-V) curves from tail currents, V1/2 (intracellular Rb+)
Format: cell-based
Text: The voltage-dependent activation mechanism of the SF gate in K2P channels allows to estimate the electrical work (ΔG = zFΔV1/2) required for pore opening by fitting the G–V curve to a Boltzmann equation. […] The open state represents the situation of both gates being simultaneously open but voltage can only exert force on the SF gate that functions as voltage sensor. […] We further tested whether mutations that open the lower gate (L262A and L264A) would affect the extracellular pH sensitivity. […] We further explored this concept of allosteric coupling using the mutations identified in the functional alanine screen of TM2 and TM4. […]
Conductance-voltage (G–V) relationships were determined from tail currents recorded at a holding potential (VH) of −80 mV after 300 ms depolarizing steps as indicated in the respective figure legend. Data were analyzed with a single Boltzmann fit following Eq. 6:6 GV=Imax/1+e^V−V1/2/slope+Ibase where V1/2 represents the voltage of half-maximal activation, s is the slope factor and Imax and Ibase represent the upper and lower asymptotes. Under appropriate experimental conditions, you can use slope to calculate the valence (charge) of the ion moving across the channel. Slope equals R * T/ z * F where R is the universal gas constant, T is temperature in K, F is the Faraday constant, and z is the valence.

CCCCC[N+](CCCCC)(CCCCC)CCCCC [TPenA, Tetra-pentyl-ammonium chloride]
effect of TPenA on the G-V curve (TREK-2, intracellular Rb+): not affected
Normalized current (TREK-2 WT + 0.1 mM TPenA, Voltage 0.000): 0.142
Normalized current (TREK-2 WT + 0.1 mM TPenA, Voltage 0.005): 0.177
Normalized current (TREK-2 WT + 0.1 mM TPenA, Voltage 0.010): 0.238
Normalized current (TREK-2 WT + 0.1 mM TPenA, Voltage 0.015): 0.307
Normalized current (TREK-2 WT + 0.1 mM TPenA, Voltage 0.020): 0.404
Normalized current (TREK-2 WT + 0.1 mM TPenA, Voltage 0.025): 0.485
Normalized current (TREK-2 WT + 0.1 mM TPenA, Voltage 0.030): 0.577
Normalized current (TREK-2 WT + 0.1 mM TPenA, Voltage 0.035): 0.667
Normalized current (TREK-2 WT + 0.1 mM TPenA, Voltage 0.040): 0.719
Normalized current (TREK-2 WT + 0.1 mM TPenA, Voltage 0.045): 0.784
Normalized current (TREK-2 WT + 0.1 mM TPenA, Voltage 0.050): 0.838
Normalized current (TREK-2 WT + 0.1 mM TPenA, Voltage 0.055): 0.851
Normalized current (TREK-2 WT + 0.1 mM TPenA, Voltage 0.060): 0.883
Normalized current (TREK-2 WT + 0.1 mM TPenA, Voltage 0.065): 0.906
Normalized current (TREK-2 WT + 0.1 mM TPenA, Voltage 0.070): 0.921
Normalized current (TREK-2 WT + 0.1 mM TPenA, Voltage 0.075): 0.924
Normalized current (TREK-2 WT + 0.1 mM TPenA, Voltage 0.080): 0.944
Normalized current (TREK-2 WT + 0.1 mM TPenA, Voltage 0.085): 0.936
Normalized current (TREK-2 WT + 0.1 mM TPenA, Voltage 0.090): 0.949
Normalized current (TREK-2 WT + 0.1 mM TPenA, Voltage 0.095): 0.963
Normalized current (TREK-2 WT + 0.1 mM TPenA, Voltage 0.100): 0.966
Normalized current (TREK-2 WT + 0.1 mM TPenA, Voltage 0.105): 0.964
Normalized current (TREK-2 WT + 0.1 mM TPenA, Voltage 0.110): 0.962
Normalized current (TREK-2 WT + 0.1 mM TPenA, Voltage 0.115): 0.961
Normalized current (TREK-2 WT + 0.1 mM TPenA, Voltage 0.120): 0.949
Normalized current (TREK-2 WT + 0.1 mM TPenA, Voltage 0.125): 0.915
Normalized current (TREK-2 WT + 0.1 mM TPenA, Voltage 0.130): 0.965
Normalized current (TREK-2 WT + 0.1 mM TPenA, Voltage 0.135): 0.962
Normalized current (TREK-2 WT + 0.1 mM TPenA, Voltage 0.140): 0.941
Normalized current (TREK-2 WT + 0.1 mM TPenA, Voltage 0.145): 0.970
Normalized current (TREK-2 WT + 0.1 mM TPenA, Voltage 0.150): 0.939
Normalized current (TREK-2 WT + 0.1 mM TPenA, Voltage -0.005): 0.115
Normalized current (TREK-2 WT + 0.1 mM TPenA, Voltage -0.010): 0.097
Normalized current (TREK-2 WT + 0.1 mM TPenA, Voltage -0.015): 0.086
Normalized current (TREK-2 WT + 0.1 mM TPenA, Voltage -0.020): 0.073
Normalized current (TREK-2 WT + 0.1 mM TPenA, Voltage -0.025): 0.072
Normalized current (TREK-2 WT + 0.1 mM TPenA, Voltage -0.030): 0.066
Normalized current (TREK-2 WT + 0.1 mM TPenA, Voltage -0.035): 0.062
Normalized current (TREK-2 WT + 0.1 mM TPenA, Voltage -0.040): 0.062
Normalized current (TREK-2 WT + 0.1 mM TPenA, Voltage -0.045): 0.059
Normalized current (TREK-2 WT + 0.1 mM TPenA, Voltage -0.050): 0.058
Normalized current (TREK-2 WT + 0.1 mM TPenA, Voltage -0.055): 0.055
Normalized current (TREK-2 WT + 0.1 mM TPenA, Voltage -0.060): 0.055
Normalized current (TREK-2 WT + 0.1 mM TPenA, Voltage -0.065): 0.050
Normalized current (TREK-2 WT + 0.1 mM TPenA, Voltage -0.070): 0.049
Normalized current (TREK-2 WT + 0.1 mM TPenA, Voltage -0.075): 0.050
Normalized current (TREK-2 WT + 0.1 mM TPenA, Voltage -0.080): 0.048
Normalized current (TREK-2 WT + 0.1 mM TPenA, Voltage -0.085): 0.046
Normalized current (TREK-2 WT + 0.1 mM TPenA, Voltage -0.090): 0.044
Normalized current (TREK-2 WT + 0.1 mM TPenA, Voltage -0.095): 0.044
Normalized current (TREK-2 WT + 1 mM TPenA, Voltage 0.000): 0.164
Normalized current (TREK-2 WT + 1 mM TPenA, Voltage 0.005): 0.199
Normalized current (TREK-2 WT + 1 mM TPenA, Voltage 0.010): 0.243
Normalized current (TREK-2 WT + 1 mM TPenA, Voltage 0.015): 0.286
Normalized current (TREK-2 WT + 1 mM TPenA, Voltage 0.020): 0.362
Normalized current (TREK-2 WT + 1 mM TPenA, Voltage 0.025): 0.446
Normalized current (TREK-2 WT + 1 mM TPenA, Voltage 0.030): 0.519
Normalized current (TREK-2 WT + 1 mM TPenA, Voltage 0.035): 0.589
Normalized current (TREK-2 WT + 1 mM TPenA, Voltage 0.040): 0.634
Normalized current (TREK-2 WT + 1 mM TPenA, Voltage 0.045): 0.688
Normalized current (TREK-2 WT + 1 mM TPenA, Voltage 0.050): 0.702
Normalized current (TREK-2 WT + 1 mM TPenA, Voltage 0.055): 0.751
Normalized current (TREK-2 WT + 1 mM TPenA, Voltage 0.060): 0.768
Normalized current (TREK-2 WT + 1 mM TPenA, Voltage 0.065): 0.790
Normalized current (TREK-2 WT + 1 mM TPenA, Voltage 0.070): 0.818
Normalized current (TREK-2 WT + 1 mM TPenA, Voltage 0.075): 0.805
Normalized current (TREK-2 WT + 1 mM TPenA, Voltage 0.080): 0.838
Normalized current (TREK-2 WT + 1 mM TPenA, Voltage 0.085): 0.838
Normalized current (TREK-2 WT + 1 mM TPenA, Voltage 0.090): 0.887
Normalized current (TREK-2 WT + 1 mM TPenA, Voltage 0.095): 0.885
Normalized current (TREK-2 WT + 1 mM TPenA, Voltage 0.100): 0.885
Normalized current (TREK-2 WT + 1 mM TPenA, Voltage 0.105): 0.883
Normalized current (TREK-2 WT + 1 mM TPenA, Voltage 0.110): 0.905
Normalized current (TREK-2 WT + 1 mM TPenA, Voltage 0.115): 0.909
Normalized current (TREK-2 WT + 1 mM TPenA, Voltage 0.120): 0.967
Normalized current (TREK-2 WT + 1 mM TPenA, Voltage 0.125): 0.928
Normalized current (TREK-2 WT + 1 mM TPenA, Voltage 0.130): 0.900
Normalized current (TREK-2 WT + 1 mM TPenA, Voltage 0.135): 0.929
Normalized current (TREK-2 WT + 1 mM TPenA, Voltage 0.140): 0.939
Normalized current (TREK-2 WT + 1 mM TPenA, Voltage 0.145): 0.922
Normalized current (TREK-2 WT + 1 mM TPenA, Voltage 0.150): 0.939
Normalized current (TREK-2 WT + 1 mM TPenA, Voltage -0.005): 0.135
Normalized current (TREK-2 WT + 1 mM TPenA, Voltage -0.010): 0.126
Normalized current (TREK-2 WT + 1 mM TPenA, Voltage -0.015): 0.111
Normalized current (TREK-2 WT + 1 mM TPenA, Voltage -0.020): 0.109
Normalized current (TREK-2 WT + 1 mM TPenA, Voltage -0.025): 0.110
Normalized current (TREK-2 WT + 1 mM TPenA, Voltage -0.030): 0.103
Normalized current (TREK-2 WT + 1 mM TPenA, Voltage -0.035): 0.102
Normalized current (TREK-2 WT + 1 mM TPenA, Voltage -0.040): 0.096
Normalized current (TREK-2 WT + 1 mM TPenA, Voltage -0.045): 0.095
Normalized current (TREK-2 WT + 1 mM TPenA, Voltage -0.050): 0.089
Normalized current (TREK-2 WT + 1 mM TPenA, Voltage -0.055): 0.092
Normalized current (TREK-2 WT + 1 mM TPenA, Voltage -0.060): 0.088
Normalized current (TREK-2 WT + 1 mM TPenA, Voltage -0.065): 0.090
Normalized current (TREK-2 WT + 1 mM TPenA, Voltage -0.070): 0.088
Normalized current (TREK-2 WT + 1 mM TPenA, Voltage -0.075): 0.085
Normalized current (TREK-2 WT + 1 mM TPenA, Voltage -0.080): 0.084
Normalized current (TREK-2 WT + 1 mM TPenA, Voltage -0.085): 0.087
Normalized current (TREK-2 WT + 1 mM TPenA, Voltage -0.090): 0.084
Normalized current (TREK-2 WT + 1 mM TPenA, Voltage -0.095): 0.081
